Measured values published in PMC6983048 (Molecules, 2019).
Read-outs that look alike come from different tables or passages of the source.

Experiments:
human DHFR (hDHFR) = details: relative to TMP; cited from earlier work
pBR322 plasmid [1] = experiment: Ethidium bromide assay, DNA-binding effects on plasmid pBR322; details: for Decrease of Fluorescence: 10 μM compound, plasmid pBR322 with ethidium bromide, 25 °C 30 min, % fluorescence relative to controls (no drug = 100%); for Binding to DNA (pBR322 plasmid), in words: ethidium bromide assay
Protocol: Each well of a 96-well plate was loaded with Tris buffer containing ethidium bromide (0.1 M Tris, 1 M NaCl, pH 8.0, 0.5 mM EtBr final concentration, 100 μL). […] Fluorescence readings are reported as % fluorescence relative to the controls.

T4 coliphage DNA [2] = experiment: Ethidium displacement assay, DNA-binding constants; details: apparent association constant
Protocol: (§1) The fluorescence of DNA solutions (calf thymus DNA, T4 coliphage DNA, poly(dA-dT)2, and poly(dG-dC)2 with the investigated compound (final concentrations 10, 50, 100 µM) was measured by the fluorescence spectrophotometer Infinite M200 TECAN at room temperature according to the procedure described above. Then, the concentration, which reduced fluorescence to 50% was determined for each compound. The data points of fluorescence intensity were fitted to the theoretical curves, with one or two different iterative nonlinear least squares computer routines. The apparent binding constant was calculated from KEtBr [EtBr] = Kapp [drug], where [drug] = the concentration of the tested compound at 50% reduction of fluorescence and KEtBr and [EtBr] are known. TMP and MTX were also investigated.

calf thymus DNA [3] = experiment: Ethidium displacement assay, DNA-binding constants; details: apparent association constant
Protocol: as §1

poly(dA-dT)2 [4] = experiment: Ethidium displacement assay, DNA-binding constants; details: apparent association constant
Protocol: as §1

poly(dG-dC)2 [5] = experiment: Ethidium displacement assay, DNA-binding constants; details: apparent association constant
Protocol: as §1

[6] = molecular target: T1, recombinant human DHFR enzyme (Homo sapiens, UniProt P00374); experiment: Dihydrofolate reductase (DHFR) inhibition assay; format: biochemical; details: pH 7.5, 22 °C, absorbance 340 nm
T1 construct: purchased
T1 sequence (P00374 1-187): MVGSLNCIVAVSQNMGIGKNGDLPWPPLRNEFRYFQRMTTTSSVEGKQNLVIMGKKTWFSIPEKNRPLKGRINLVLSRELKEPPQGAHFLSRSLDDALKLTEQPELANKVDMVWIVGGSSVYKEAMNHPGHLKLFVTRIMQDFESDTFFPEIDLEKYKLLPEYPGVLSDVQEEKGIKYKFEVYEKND
Protocol: The procedure for detection of DHFR activity inhibition included preparation of a test mixture in a 1.0 mL quartz cuvette for the spectrophotometric method. Assay buffer—1× for DHFR (pH 7.5) and 1.5 × 10^−3 units of DHFR were added to the appropriate tube and thoroughly mixed. […] After mixing accurately, the reaction was initiated by adding 10 mM dihydrofolic acid (5 µL for each reaction) and a kinetics program was immediately started. The changes in absorbance (ΔOD/ min) were measured by the spectrophotometer Specord 200Plus (Analytikjena, Germany) at 340 nm and 22 °C, and the kinetic program (reading every 15 s for 2.5 min) according to the instructions supplied with the set and recommended by the producer.

[7] = tested on: poly(dA-dT)2 (DNA, polymer) AT; experiment: ethidium bromide displacement fluorescence; details: Na+ 1 M; 0.1 M Tris pH 8.0, room temperature; ethidium displaced; apparent
[8] = tested on: poly(dG-dC)2 (DNA, polymer) GC; experiment: ethidium bromide displacement fluorescence; details: Na+ 1 M; 0.1 M Tris pH 8.0, room temperature; ethidium displaced; apparent
DHFR = tested on: DHFR; set-up: method as in PMID 30991189; details: cited from earlier work
calf thymus DNA [9] = tested on: calf thymus DNA; set-up: method as in PMID 2540332; details: KEtBr, known constant of ethidium bromide; cited from earlier work
T4 coliphage DNA [10] = tested on: T4 coliphage DNA; set-up: method as in PMID 2540332; details: KEtBr, known constant of ethidium bromide; cited from earlier work
poly(dA-dT)2 [11] = tested on: poly(dA-dT)2; set-up: method as in PMID 2540332; details: KEtBr, known constant of ethidium bromide; cited from earlier work
poly(dG-dC)2 [12] = tested on: poly(dG-dC)2; set-up: method as in PMID 2540332; details: KEtBr, known constant of ethidium bromide; cited from earlier work
hDHFR = tested on: hDHFR; set-up: method as in PMID 28152430; details: Wang's compounds; read-out: IC50 (Figure 1); cited from earlier work
pBR322 plasmid [13] = tested on: pBR322 plasmid; set-up: method as in PMID 27008800; details: same conditions; cited from earlier work
[14] = Sabry's compounds, read-out: IC50 (Figure 1)
[15] = read-out: DHFR inhibitory potency IC50

Row | SMILES | Decrease of Fluorescence (pBR322 plasmid [1]) [%] | Kapp T4 DNA (T4 coliphage DNA [2]) [M⁻¹] | Kapp Calf Thymus DNA (calf thymus DNA [3]) [M⁻¹] | Kapp Poly (dA-dT)2 (poly(dA-dT)2 [4]) [M⁻¹] | Kapp Poly (dG-dC)2 (poly(dG-dC)2 [5]) [M⁻¹] | IC50 [6] [µM] | Kapp [7] | Kapp [8] | other results
1 | CCc1nc(N)nc(N)c1C#CCc1cc(OC)c(OC)c(OC)c1 [C] |  |  |  |  |  |  |  |  | potency greater than TMP (human DHFR (hDHFR)): 3500 fold
2 | COc1cc(C(=O)Nc2cnc(N)nc2)cc(OC)c1OC [Compound 1, N-(2-Aminopyrimidin-5-yl)-3,4,5-Trimethoxybenzamide] | 71.43 | 290000 | 240000 | 1.17e+06 | 130000 | 21.8 | 11.7 ± 0.2 × 10^5 M^-1 | 1.3 ± 0.2 × 10^5 M^-1 | 
3 | COc1cc(CC(=O)Nc2cnc(N)nc2)cc(OC)c1OC [Compound 2, N-(2-Aminopyrimidin-5-yl)-2-(3,4,5-Trimethoxyphenyl)Acetamide] | 45.18 | 110000 | 440000 | 390000 | 80000 | 0.99 | 3.9 ± 0.2 × 10^5 M^-1 | 0.8 ± 0.2 × 10^5 M^-1 | 
4 | COc1cc(CCC(=O)Nc2cnc(N)nc2)cc(OC)c1OC [Compound 3, N-(2-Aminopyrimidin-5-yl)-3-(3,4,5-Trimethoxyphenyl)Propanamide] | 69.92 | 780000 | 370000 | 360000 | 50000 |  | 3.6 ± 0.2 × 10^5 M^-1 | 0.5 ± 0.2 × 10^5 M^-1 | 
5 | COc1cc(C(=O)Nc2ccc(N)cc2)cc(OC)c1OC [Compound 4, N-(4-Aminophenyl)-3,4,5-Trimethoxybenzamide] | 80.43 | 390000 | 590000 | 790000 | 160000 | 1.02 | 7.9 ± 0.2 × 10^5 M^-1 | 1.6 ± 0.2 × 10^5 M^-1 | 
6 | COc1cc(CC(=O)Nc2ccc(N)cc2)cc(OC)c1OC [Compound 5, N-(4-Aminophenyl)-2-(3,4,5 Trimethoxyphenyl)Acetamide] | 69.17 | 680000 | 520000 | 1.4e+06 | 300000 | 15.9 | 14 ± 0.2 × 10^5 M^-1 | 3.0 ± 0.2 × 10^5 M^-1 | 
7 | COc1cc(CCC(=O)Nc2ccc(N)cc2)cc(OC)c1OC [Compound 6, N-(4-Aminophenyl)-3-(3,4,5-Trimethoxyphenyl)Propanamide] | 71.43 | 90000 | 460000 | 420000 | 110000 | 15.1 | 4.2 ± 0.2 × 10^5 M^-1 | 1.1 ± 0.2 × 10^5 M^-1 | 
8 | COc1ccc(C(=O)Nc2ccc3nc(SC)n(-c4ccc(OC)cc4)c(=O)c3c2)cc1 [D] |  |  |  |  |  |  |  |  | IC50 (DHFR; [14]): 200 µM; IC50 (DHFR; [15]): 0.2 µM
9 | COc1ccc(-n2c(SC)nc3ccc(NC(=O)C4CCCS4)cc3c2=O)cc1 (stereo not drawn) [E] |  |  |  |  |  |  |  |  | IC50 (DHFR; [14]): 200 µM
10 | CC[n+]1c(-c2ccccc2)c2cc(N)ccc2c2ccc(N)cc21 [EtBr, Ethidium bromide] |  |  |  |  |  |  |  |  | Kapp Calf Thymus DNA (calf thymus DNA [9]): 1e+07 M⁻¹; Kapp T4 DNA (T4 coliphage DNA [10]): 1e+07 M⁻¹; Kapp Poly (dA-dT)2 (poly(dA-dT)2 [11]): 95 ^b* × 10^5 M^−1; Kapp Poly (dG-dC)2 (poly(dG-dC)2 [12]): 9.9e+06 M⁻¹
11 | COc1ccc(CCc2ccc3nc(N)nc(N)c3n2)cc1 [F] |  |  |  |  |  |  |  |  | IC50 (DHFR; [15]): 0.2 µM; IC50 (hDHFR): 760 µM
12 | COc1cccc(CCc2ccc3nc(N)nc(N)c3n2)c1 [G] |  |  |  |  |  |  |  |  | IC50 (hDHFR): 450 µM
13 | COc1cc(CCc2ccc3nc(N)nc(N)c3n2)cc(OC)c1OC [H] |  |  |  |  |  |  |  |  | IC50 (hDHFR): 290 µM
14 | CN(Cc1cnc2nc(N)nc(N)c2n1)c1ccc(C(=O)N[C@@H](CCC(=O)O)C(=O)O)cc1 [MTX, methotrexate, reference compound] | 100 |  |  |  |  |  |  |  | Binding to DNA (pBR322 plasmid), in words (pBR322 plasmid [1]): do not bind to DNA; IC50 (DHFR; [15]): […]
15 | Cn1cc(NC(=O)c2cc(NC(=O)CN=C(N)N)cn2C)cc1C(=O)NCCC(=N)N [NT, netropsin, reference compound] | 74 | 830000 | 870000 | 8.75e+07 | 250000 |  | 8.75e+07 M⁻¹ | 250000 M⁻¹ | DNA-binding effect (fluorescence) (pBR322 plasmid [13]): 74%
16 | COc1cc(Cc2cnc(N)nc2N)cc(OC)c1OC [TMP, 2,4-diamino-5-(3,4,5-trimethoxybenzyl) pyrimidine, reference compound] | 100 |  |  |  |  |  |  |  | Binding to DNA (pBR322 plasmid), in words (pBR322 plasmid [1]): do not bind to DNA
